Here are results for two sequences from US8354387B2, “Methods and compositions for delivering siRNA into mammalian cells” (Centre National de la Recherche Scientifique, priority 2004, dated 2013).

The subject of one experiment is GAPDH. The experiment can be described thus: GAPDH protein levels by Western blotting after siRNA transfection. The experiment is classed as cell-based, human. The settings on record: for reduction of GAPDH protein levels: Hs68, 30 hrs post transfection. On the procedure: FIG. 4: MPG-mediated delivery of siRNA induces a robust biological response. A/ MPG mediated delivery of siRNA targeting luciferase gene. MPG/siRNA or MPG^ΔNLS/DNA complexes were formed in DMEM at a charge ratio 10:1 and incubated for 30 min at 37° C., then overlaid onto Cos-7 or HeLa cells grown to 60% confluence and previously transfected with the pRL-SV40 plasmid (Promega) encoding the reporter gene luciferase under control of an SV40 promoter. After 30 min incubation at 37° C., 1 ml of fresh DMEM supplemented with 10% fetal calf serum was added onto the cells. Luciferase activity was measured 48 hrs after transfection. Transfections were also performed with Oligofectamine™ as a standard. Control experiments were performed with either naked siRNA or using a mismatch siRNA (dashed bars). B/ MPG-mediated delivery of siRNA targeting GAPDH gene: Western blot analysis. Different concentrations of siRNA (25, 50, 100 nM) were transfected with either MPG or MPG^ΔNLS and the levels of GAPDH protein were analyzed by Western blotting 30 hrs post transfection. Actin was used as a control to normalize protein loading. C/ MPG-mediated delivery of siRNA targeting GAPDH gene: Northern blot analysis. The kinetics of siRNA (50 nM)-induced degradation of GAPDH mRNA following transfection with either MPG or MPG^ΔNLS were analyzed by Northern blotting. Actin was used as a control to normalize mRNA levels in each sample. […]
To further understand the impact of the NLS in MPG, we examined the biological response of an siRNA targeting the GAPDH gene following transfection into human fibroblasts (Hs68). […] Different concentrations of siRNA (25, 50, 100 nM) were transfected with either MPG or MPG^ΔNLS and the levels of GAPDH protein were analyzed by Western blotting 30 hrs post transfection. […] The kinetics of siRNA-induced degradation of GAPDH mRNA following transfection with either MPG or MPG^ΔNLS were analyzed by Northern blotting. […]

In experiment [1] the test system is human breast cancer cell line MCF-7. Put plainly: Proliferation of MCF-7 cancer cells. The class given is cell-based. To be noted: controls, MCF-7, 8 days. On the procedure:
FIG. 7: Cyclin-B1 siRNA inhibits tumour growth. Exponentially MCF-7 growing cells (1-3 10^4) were incubated with different concentrations (10 nM, 50 nM, 100 nM) of siRNA or mismatched siRNA complexed or not with MPG (molecular ratio 1:10) and cell proliferation was assessed 8 days post incubation.
Cell culture, MPG mediated transfection. Adherent fibroblastic Hs68 (ATCC no CRL-1635), 293 (ATCC no CRL-1573), HeLa (ATCC no CCL-2) and MCF-7 (ATCC no HTB-22) cell lines were cultured in Dulbecco's Modified Eagle's Medium supplemented with […] glutamine, 1% antibiotics (streptomycin 10,000 μg/ml, penicillin, 10,000 IU/ml) and 10% (w/v) fetal calf serum (FCS), at 37° C. in a humidified atmosphere containing 5% CO2. For MPG-mediated delivery of siRNA, complexes were formed by incubation of different concentrations of siRNA from 10 nM to 1 μM with MPG at a molecular ratio of 1:10, respectively, in 500 μl of DMEM for 30 min at 37° C. Cells grown to 40 to 60% confluence were then overlaid with preformed complexes. After 30 min incubation at 37° C., 1 ml of fresh DMEM supplemented with 10% fetal calf serum was added directly to the cells, without removing the overlay of siRNA/MPG complexes, and cells were returned to the incubator. Different concentrations of siRNA or phosphorothioate oligonucleotide were transfected with cationic lipids, Lipofectamine or Oligofectamine (Invitrogen, Carlsbad, US), according to the guidelines of the manufacturer.
As delivery of siRNA directed against cyclin B1 promotes efficient downregulation of both cyclin B1 mRNA and protein levels, it was looked for to what extent this might affect proliferation of cancer cells. The effect of siRNA was investigated on the human breast cancer cell line MCF-7. Exponentially growing cells (1-3 10^4) were incubated with different concentrations (10 nM, 50 nM, 100 nM) of siRNA or mismatched siRNA complexed or not with MPG (molecular ratio 1:10) and cell proliferation was assessed 8 days post incubation (FIG. 7).

With “GALFLGFLGAAGSTMGAWSQPKSKRKV (carrier peptide) [MPG^ΔNLS, MPG variant with single mutation of the second lysine residue in the NLS motif to serine]”, in the experiment on GAPDH (25 nM siRNA), the “reduction of GAPDH protein levels” value stood at 80%. The “efficiency relative to wild-type MPG” value with GAPDH (GAPDH siRNA, Hs68) is “at least 2 fold”.
Take “GALFLGFLGAAGSTMGAWSQPKKKRKV (carrier peptide) [MPG, bipartite amphipathic peptide derived from fusion peptide domain of HIV-1 gp41 and NLS of SV40 large T antigen]”: the “reduction of GAPDH protein levels” value in the experiment with GAPDH (100 nM siRNA) amounted to 60%. Moreover, in experiment [1], the “effect on cell proliferation” value is on record as “neither free siRNA or scrambled molecules, or the peptide carrier alone affected cell proliferation”.
